{
  "source": "paper PMC12888861",
  "about": "“Antibacterial activity of enmetazobactam against Acinetobacter spp.: a molecular dissection of mechanism of action and resistance determinants” (Antimicrobial Agents and Chemotherapy, 2025)",
  "system": "carbapenem-susceptible A. baumannii isolates (n = 54)",
  "test": "MIC, broth microdilution (EUCAST), carbapenem-susceptible A. baumannii isolates",
  "type": "cell-based, Acinetobacter baumannii",
  "conditions": "for MIC: in combinations ETZ fixed at 8 mg/L",
  "from_the_text": "The bacterial strains used in this study comprised 208 clinical isolates from the Spanish National Acinetobacter spp. 2020 Multicenter Collection, which was previously characterized in detail by our research group, including whole-genome sequencing, phylogenetics studies, clonal dynamics, and resistance mechanisms ([2], [29]). Additionally, a collection of A. baumannii ATCC 17978 transformants coding the blaOXA-23, blaOXA-24/40, blaOXA-51, blaOXA-58, blaOXA-143, and blaOXA-201 genes, previously constructed and described by our group ([30]), was used to determine the activity of enmetazobactam against strains carrying the main CHDLs of A. baumannii.\nThe antimicrobial susceptibility of the 208 Acinetobacter spp. isolates was assessed using the broth microdilution method, as described in the European Committee on Antimicrobial Susceptibility Testing (EUCAST) v.15 guidelines (http://www.eucast.org/clinical_breakpoints). […] MICs for enmetazobactam alone were assessed as well. […] Subsequently, MIC testing was also conducted with a collection of A. baumannii ATCC 17978 transformants expressing clinically relevant OXA-like carbapenemase genes.\nThe A. baumannii ATCC 19606 strain was used as the reference strain in all susceptibility experiments, in duplicate assays. Antibiotics were purchased from Sigma-Aldrich, except enmetazobactam and durlobactam, which were obtained from Advanz Pharma and MedChemExpress, respectively.",
  "key": {"[1]": {"conditions": "Acinetobacter baumannii, carbapenem-susceptible A. baumannii isolates (n = 54), ETZ fixed 8 mg/L in combinations"}, "[2]": {"conditions": "[…], ETZ fixed 8 mg/L in combinations"}},
  "data": [
    {"compound": "CO/N=C(\\C(=O)N[C@@H]1C(=O)N2C(C(=O)[O-])=C(C[N+]3(C)CCCC3)CS[C@H]12)c1csc(N)n1", "note": "[cefepime]", "values": [
      {"measurement": "MIC distribution 0.12", "value": 0},
      {"measurement": "MIC", "setting": "Acinetobacter baumannii, isolate Ab1, ST 164, ADC-6, OXA-91", "value": 2, "unit": "µg/mL"},
      {"measurement": "MIC", "setting": "Acinetobacter baumannii, isolate Ab11, ST 239, ADC-2, OXA-51", "value": 2, "unit": "µg/mL"},
      {"measurement": "MIC", "setting": "Acinetobacter baumannii, isolate Ab34, ST 2182, ADC-2, OXA-130", "value": 2, "unit": "µg/mL"},
      {"measurement": "MIC", "setting": "Acinetobacter baumannii, isolate Ab38, ST 866, ADC-2, OXA-385", "value": 8, "unit": "µg/mL"},
      {"measurement": "MIC", "setting": "Acinetobacter baumannii, isolate Ab40, ST 2176, ADC-2, OXA-64", "value": 2, "unit": "µg/mL"},
      {"measurement": "MIC", "setting": "Acinetobacter baumannii, isolate Ab50, ST 2176, ADC-2, OXA-64", "value": 2, "unit": "µg/mL"},
      {"measurement": "MIC", "setting": "Acinetobacter baumannii, isolate Ab57, ST 1470, ADC-58, OXA-106", "value": 2, "unit": "µg/mL"},
      {"measurement": "MIC", "setting": "Acinetobacter baumannii, isolate Ab58, ST 6, ADC-2, OXA-94", "value": 4, "unit": "µg/mL"},
      {"measurement": "MIC", "setting": "Acinetobacter baumannii, isolate Ab61, ST 1639, ADC-7, OXA-64", "value": 1, "unit": "µg/mL"},
      {"measurement": "MIC", "setting": "Acinetobacter baumannii, isolate Ab62, ST 265, ADC-2, OXA-91", "value": 1, "unit": "µg/mL"},
      {"measurement": "MIC", "setting": "Acinetobacter baumannii, isolate Ab67, ST 1, ADC-11, OXA-69", "value": 2, "unit": "µg/mL"},
      {"measurement": "MIC", "setting": "Acinetobacter baumannii, isolate Ab79, ST 106, ADC-11, OXA-78", "value": 1, "unit": "µg/mL"},
      {"measurement": "MIC", "setting": "Acinetobacter baumannii, isolate Ab80, ST 2182, ADC-6, OXA-208", "value": 1, "unit": "µg/mL"},
      {"measurement": "MIC", "setting": "Acinetobacter baumannii, isolate Ab81, ST 25, ADC-79, OXA-64", "value": 2, "unit": "µg/mL"},
      {"measurement": "MIC", "setting": "Acinetobacter baumannii, isolate Ab93, ST 25, ADC-79, OXA-64", "value": 2, "unit": "µg/mL"},
      {"measurement": "MIC", "setting": "Acinetobacter baumannii, isolate Ab95, ST 582, ADC-5, OXA-317", "value": 2, "unit": "µg/mL"},
      {"measurement": "MIC", "setting": "Acinetobacter baumannii, isolate Ab96, ST 582, ADC-5, OXA-317", "value": 1, "unit": "µg/mL"},
      {"measurement": "MIC", "setting": "Acinetobacter baumannii, isolate Ab100, ST 145, ADC-58, OXA-343", "value": 2, "unit": "µg/mL"},
      {"measurement": "MIC", "setting": "Acinetobacter baumannii, isolate Ab110, ST 1623, ADC-3, OXA-70", "value": 8, "unit": "µg/mL"},
      {"measurement": "MIC", "setting": "Acinetobacter baumannii, isolate Ab112, ST 193, ADC-like, OXA-120", "value": 0.5, "unit": "µg/mL"},
      {"measurement": "MIC", "setting": "Acinetobacter baumannii, isolate Ab124, ST 2176, ADC-2, OXA-64", "value": 1, "unit": "µg/mL"},
      {"measurement": "MIC", "setting": "Acinetobacter baumannii, isolate Ab127, ST 2176, ADC-2, OXA-64", "value": 2, "unit": "µg/mL"},
      {"measurement": "MIC", "setting": "Acinetobacter baumannii, isolate Ab128, ST 2176, ADC-2, OXA-64", "value": 1, "unit": "µg/mL"},
      {"measurement": "MIC", "setting": "Acinetobacter baumannii, isolate Ab130, ST 32, ADC-79, OXA-100", "value": 4, "unit": "µg/mL"},
      {"measurement": "MIC", "setting": "Acinetobacter baumannii, isolate Ab131, ST 687, ADC-like, OXA-208", "value": 0.5, "unit": "µg/mL"},
      {"measurement": "MIC", "setting": "Acinetobacter baumannii, isolate Ab132, ST 1112, ADC-79, OXA-89", "value": 4, "unit": "µg/mL"},
      {"measurement": "MIC", "setting": "Acinetobacter baumannii, isolate Ab136, ST 2183, ADC-like, OXA-66", "value": 2, "unit": "µg/mL"},
      {"measurement": "MIC", "setting": "Acinetobacter baumannii, isolate Ab139, ST 54, ADC-like, OXA-365", "value": 2, "unit": "µg/mL"},
      {"measurement": "MIC", "setting": "Acinetobacter baumannii, isolate Ab142, ST 1, ADC-like, OXA-69", "value": 16, "unit": "µg/mL"},
      {"measurement": "MIC", "setting": "Acinetobacter baumannii, isolate Ab143, ST 1328, ADC-76, OXA-408", "value": 2, "unit": "µg/mL"},
      {"measurement": "MIC", "setting": "Acinetobacter baumannii, isolate Ab149, ST 1112, ADC-6, OXA-407", "value": 2, "unit": "µg/mL"},
      {"measurement": "MIC", "setting": "Acinetobacter baumannii, isolate Ab150, ST 2184, ADC-like, OXA-64", "value": 2, "unit": "µg/mL"},
      {"measurement": "MIC", "setting": "Acinetobacter baumannii, isolate Ab152, ST 132, ADC-2, OXA-120", "value": 2, "unit": "µg/mL"},
      {"measurement": "MIC", "setting": "Acinetobacter baumannii, isolate Ab158, ST 2034, ADC-2, OXA-217", "value": 0.5, "unit": "µg/mL"},
      {"measurement": "MIC", "setting": "Acinetobacter baumannii, isolate Ab163, ST 132, ADC-2, OXA-120", "value": 0.5, "unit": "µg/mL"},
      {"measurement": "MIC", "setting": "Acinetobacter baumannii, isolate Ab167, ST 1623, ADC-like, OXA-345", "value": 1, "unit": "µg/mL"},
      {"measurement": "MIC", "setting": "Acinetobacter baumannii, isolate Ab168, ST 1470, ADC-75, OXA-402", "value": 1, "unit": "µg/mL"},
      {"measurement": "MIC", "setting": "Acinetobacter baumannii, isolate Ab170, ST 2110, ADC-4, OXA-338", "value": 2, "unit": "µg/mL"},
      {"measurement": "MIC", "setting": "Acinetobacter baumannii, isolate Ab172, ST 2185, ADC-5, OXA-217", "value": 1, "unit": "µg/mL"},
      {"measurement": "MIC", "setting": "Acinetobacter baumannii, isolate Ab185, ST 2, ADC-26, OXA-66", "value": 4, "unit": "µg/mL"},
      {"measurement": "MIC", "setting": "Acinetobacter baumannii, isolate Ab187, ST 105, ADC-2, OXA-430", "value": 0.5, "unit": "µg/mL"},
      {"measurement": "MIC", "setting": "Acinetobacter baumannii, isolate Ab188, ST 203, ADC-6, OXA-217, PDC-1", "value": 0.5, "unit": "µg/mL"},
      {"measurement": "MIC", "setting": "Acinetobacter baumannii, isolate Ab189, ST 1405, ADC-3, OXA-120", "value": 1, "unit": "µg/mL"},
      {"measurement": "MIC", "setting": "Acinetobacter baumannii, isolate Ab190, ST 2186, ADC-6, OXA-413", "value": 1, "unit": "µg/mL"},
      {"measurement": "MIC", "setting": "Acinetobacter baumannii, isolate Ab193, ST 164, ADC-6, OXA-91", "value": 1, "unit": "µg/mL"},
      {"measurement": "MIC", "setting": "Acinetobacter baumannii, isolate Ab195, ST 1, ADC-11, OXA-69", "value": 2, "unit": "µg/mL"},
      {"measurement": "MIC", "setting": "Acinetobacter baumannii, isolate Ab200, ST 1336, ADC-2, OXA-51", "value": 2, "unit": "µg/mL"},
      {"measurement": "MIC", "setting": "Acinetobacter baumannii, isolate Ab202, ST 1, ADC-11, OXA-69", "value": 2, "unit": "µg/mL"},
      {"measurement": "MIC", "setting": "Acinetobacter baumannii, isolate Ab203, ST 221, ADC-6, OXA-88", "value": 1, "unit": "µg/mL"},
      {"measurement": "MIC", "setting": "Acinetobacter baumannii, isolate Ab206, ST 2187, ADC-58, OXA-69", "value": 1, "unit": "µg/mL"},
      {"measurement": "MIC", "setting": "Acinetobacter baumannii, isolate Ab209", "value": 1, "unit": "µg/mL"},
      {"measurement": "MIC", "setting": "Acinetobacter baumannii, isolate Ab213", "value": 1, "unit": "µg/mL"},
      {"measurement": "MIC", "setting": "Acinetobacter baumannii, isolate Ab218", "value": 2, "unit": "µg/mL"},
      {"measurement": "MIC", "setting": "Acinetobacter baumannii, isolate Ab220", "value": 0.5, "unit": "µg/mL"},
      {"measurement": "MIC50", "setting": "[1]", "value": 4, "unit": "µg/mL"},
      {"measurement": "MIC90", "setting": "[1]", "value": 8, "unit": "µg/mL"},
      {"measurement": "MIC distribution 0.25", "setting": "[2]", "value": 0},
      {"measurement": "MIC distribution 0.5", "setting": "[2]", "value": 0},
      {"measurement": "MIC distribution 1", "setting": "[2]", "value": 13.0},
      {"measurement": "MIC distribution 2", "setting": "[2]", "value": 44.4},
      {"measurement": "MIC distribution 4", "setting": "[2]", "value": 87.0},
      {"measurement": "MIC distribution 8", "setting": "[2]", "value": 94.4},
      {"measurement": "MIC distribution 16", "setting": "[2]", "value": 98.1},
      {"measurement": "MIC distribution ≤0.06", "setting": "[2]", "value": 0},
      {"measurement": "MIC distribution ≥32", "setting": "[2]", "value": 100}
    ]}
  ]
}
